Results: patent US6680054B1 (priority 1996, dated 2004)
Read-outs that look alike come from different tables or passages of the source.

Key:
influenza A virus = format: cell-based
[1] = biological target: whole virus influenza neuraminidase, A/NWS/Tokyo/3/67/H1N2 (Influenza A virus, UniProt P06820); format: biochemical; conditions: read-out: inhibition constants (IC50), NWS/Tokyo
[2] = system: influenza strain X-31 (H3N2); format: cell-based
influenza strain Tokyo A = format: cell-based

Sequence of whole virus influenza neuraminidase, A/NWS/Tokyo/3/67/H1N2 (P06820 whole entry, looked up): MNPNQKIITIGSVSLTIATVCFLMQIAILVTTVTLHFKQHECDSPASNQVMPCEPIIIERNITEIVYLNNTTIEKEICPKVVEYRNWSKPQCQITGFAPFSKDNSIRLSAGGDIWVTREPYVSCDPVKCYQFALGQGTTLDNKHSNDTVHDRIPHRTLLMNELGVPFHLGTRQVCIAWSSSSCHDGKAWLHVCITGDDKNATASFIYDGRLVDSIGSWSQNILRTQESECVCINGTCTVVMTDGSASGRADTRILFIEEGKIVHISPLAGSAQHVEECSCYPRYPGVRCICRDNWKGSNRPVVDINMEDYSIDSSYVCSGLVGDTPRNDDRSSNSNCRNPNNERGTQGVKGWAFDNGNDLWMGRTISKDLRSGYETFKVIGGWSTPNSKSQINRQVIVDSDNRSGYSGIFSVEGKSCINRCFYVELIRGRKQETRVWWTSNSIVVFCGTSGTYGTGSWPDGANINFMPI

Molecule | ID50, minimum compound concentration that inhibits cytopathic effect by 50% (influenza A virus) | MTC, minimum cytotoxic drug concentration (MDCK cells) | MTC, minimum cytotoxic drug concentration (MDCK cells; dog) | also measured
7-{6′-{6″-[6″′-(6″″-(6′″″-aminocaproyl)-aminocaproyl)-aminocaproyl]-aminocaproyl}-aminohexyl-carbamoyl-oxy-4-guanidino-Neu5Ac2en [Compound 2c] | 3.0 µg/mL | >100 |  | 
CC(=O)N[C@H]1[C@H]([C@H](O)[C@H](O)CO)OC(C(=O)O)=C[C@@H]1O [DANA, 2-deoxy-2,3-didehydro-N-acetylneuraminic acid] |  |  |  | IC50 [1]: 6 µM
CC(=O)NC1C(NC(=N)N)C=C(C(=O)O)OC1[C@H](O)[C@H](O)CO (stereo partly shown) [GG167, 4-guanidino-Neu5Ac2en] | <0.32 µg/mL |  | >100 | 
NC(=O)c1ncn([C@@H]2O[C@H](CO)[C@@H](O)[C@H]2O)n1 [Ribavirin] | 1.0 to 2.6 µg/mL |  | >32 | 
Fetuin |  |  |  | Lowest Concentration (μM of GG167 units) that Inhibited Agglutination, X-31 [2]: <0.48 µM; Lowest Concentration (μM of GG167 units) that Inhibited Agglutination, TOKYO (influenza strain Tokyo A): 5.86 µM
Polyacrylamide |  | >100 |  | 
